How the values were obtained:
Experiment in all cases: relative viability (nuclei count vs DMSO), 5 days (fraction); higher = more cells survive
[1] = test system: NCI-H1395
Summary of the method: (§1)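 One day after seeding in 1536-well plates, lung cancer cell lines were dosed by pin tool. Dosing was either single-drug or a fixed anchor-drug dose plus five library-drug doses (not always all listed) in √10 steps. After 5 days, nuclei were stained in one fix-and-stain step and counted on 4× images, and relative viability is the nuclei count of treated wells over that of vehicle wells, given as the median of duplicate plates.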

[2] = test system: HOP-62
Summary of the method: as §1

[3] = test system: A-427
Summary of the method: as §1

[4] = test system: NCI-H522
Summary of the method: as §1

[5] = test system: NCI-H1792
Summary of the method: as §1

[6] = test system: NCI-H1437
Summary of the method: as §1

[7] = test system: HCC-827
Summary of the method: as §1

[8] = test system: CAL-12T
Summary of the method: as §1

[9] = test system: NCI-H1755
Summary of the method: as §1

[10] = test system: SK-LU-1
Summary of the method: as §1

[11] = test system: COR-L 105
Summary of the method: as §1

[12] = test system: EMC-BAC-2
Summary of the method: as §1

[13] = test system: NCI-H23
Summary of the method: as §1

[14] = test system: LCLC-103H
Summary of the method: as §1

[15] = test system: NCI-H2228
Summary of the method: as §1

[16] = test system: HCC-366
Summary of the method: as §1

[17] = test system: NCI-H1915
Summary of the method: as §1

[18] = test system: SW 1573
Summary of the method: as §1

[19] = test system: NCI-H460
Summary of the method: as §1

[20] = test system: NCI-H727
Summary of the method: as §1

[21] = test system: HARA
Summary of the method: as §1

[22] = test system: NCI-H2009
Summary of the method: as §1

O=c1cc(-c2cccc3c2Sc2ccccc2S3)oc(N2CCOCC2)c1 + CC(=O)c1c(C)c2cnc(Nc3ccc(N4CCNCC4)cn3)nc2n(C2CCCC2)c1=O [Palbociclib] (partner 0.5 µM)
relative viability ([1]; first compound 0.08 µM): 0.62
relative viability ([1]; first compound 0.253 µM): 0.539
relative viability ([1]; first compound 0.8 µM): 0.568
relative viability ([1]; first compound 2.53 µM): 0.574
relative viability ([1]; first compound 8 µM): 0.638
relative viability ([2]; first compound 0.08 µM): 0.465
relative viability ([2]; first compound 0.253 µM): 0.391
relative viability ([2]; first compound 0.8 µM): 0.497
relative viability ([2]; first compound 2.53 µM): 0.512
relative viability ([2]; first compound 8 µM): 0.54
relative viability ([3]; first compound 0.08 µM): 0.513
relative viability ([3]; first compound 0.253 µM): 0.509
relative viability ([3]; first compound 0.8 µM): 0.49
relative viability ([3]; first compound 2.53 µM): 0.502
relative viability ([3]; first compound 8 µM): 0.548
relative viability ([4]; first compound 0.08 µM): 1.13
relative viability ([4]; first compound 0.253 µM): 1.07
relative viability ([4]; first compound 0.8 µM): 1.01
relative viability ([4]; first compound 2.53 µM): 1.04
relative viability ([4]; first compound 8 µM): 1
relative viability ([5]; first compound 0.08 µM): 0.673
relative viability ([5]; first compound 0.253 µM): 0.847
relative viability ([5]; first compound 0.8 µM): 0.635
relative viability ([5]; first compound 2.53 µM): 0.654
relative viability ([5]; first compound 8 µM): 0.688
relative viability ([6]; first compound 0.08 µM): 0.302
relative viability ([6]; first compound 0.253 µM): 0.344
relative viability ([6]; first compound 0.8 µM): 0.276
relative viability ([6]; first compound 2.53 µM): 0.25
relative viability ([6]; first compound 8 µM): 0.285
relative viability ([7]; first compound 0.08 µM): 0.479
relative viability ([7]; first compound 0.253 µM): 0.493
relative viability ([7]; first compound 0.8 µM): 0.444
relative viability ([7]; first compound 2.53 µM): 0.37
relative viability ([7]; first compound 8 µM): 0.442
relative viability ([8]; first compound 0.08 µM): 0.369
relative viability ([8]; first compound 0.253 µM): 0.57
relative viability ([8]; first compound 0.8 µM): 0.498
relative viability ([8]; first compound 2.53 µM): 0.404
relative viability ([8]; first compound 8 µM): 0.292
relative viability ([9]; first compound 0.08 µM): 0.436
relative viability ([9]; first compound 0.253 µM): 0.464
relative viability ([9]; first compound 0.8 µM): 0.463
relative viability ([9]; first compound 2.53 µM): 0.383
relative viability ([9]; first compound 8 µM): 0.409
relative viability ([10]; first compound 0.08 µM): 0.397
relative viability ([10]; first compound 0.253 µM): 0.354
relative viability ([10]; first compound 0.8 µM): 0.418
relative viability ([10]; first compound 2.53 µM): 0.327
relative viability ([10]; first compound 8 µM): 0.368
relative viability ([11]; first compound 0.08 µM): 0.349
relative viability ([11]; first compound 0.253 µM): 0.319
relative viability ([11]; first compound 0.8 µM): 0.385
relative viability ([11]; first compound 2.53 µM): 0.413
relative viability ([11]; first compound 8 µM): 0.416
relative viability ([12]; first compound 0.08 µM): 0.511
relative viability ([12]; first compound 0.253 µM): 0.529
relative viability ([12]; first compound 0.8 µM): 0.536
relative viability ([12]; first compound 2.53 µM): 0.538
relative viability ([12]; first compound 8 µM): 0.543
relative viability ([13]; first compound 0.08 µM): 0.57
relative viability ([13]; first compound 0.253 µM): 0.485
relative viability ([13]; first compound 0.8 µM): 0.498
relative viability ([13]; first compound 2.53 µM): 0.451
relative viability ([13]; first compound 8 µM): 0.451
relative viability ([14]; first compound 0.08 µM): 0.461
relative viability ([14]; first compound 0.253 µM): 0.51
relative viability ([14]; first compound 0.8 µM): 0.477
relative viability ([14]; first compound 2.53 µM): 0.46
relative viability ([14]; first compound 8 µM): 0.448
relative viability ([15]; first compound 0.08 µM): 0.766
relative viability ([15]; first compound 0.253 µM): 0.766
relative viability ([15]; first compound 0.8 µM): 0.901
relative viability ([15]; first compound 2.53 µM): 0.608
relative viability ([15]; first compound 8 µM): 0.758
relative viability ([16]; first compound 0.08 µM): 0.436
relative viability ([16]; first compound 0.253 µM): 0.349
relative viability ([16]; first compound 0.8 µM): 0.487
relative viability ([16]; first compound 2.53 µM): 0.401
relative viability ([16]; first compound 8 µM): 0.51
relative viability ([17]; first compound 0.08 µM): 0.549
relative viability ([17]; first compound 0.253 µM): 0.527
relative viability ([17]; first compound 0.8 µM): 0.541
relative viability ([17]; first compound 2.53 µM): 0.509
relative viability ([17]; first compound 8 µM): 0.497
relative viability ([18]; first compound 0.08 µM): 0.426
relative viability ([18]; first compound 0.253 µM): 0.414
relative viability ([18]; first compound 0.8 µM): 0.448
relative viability ([18]; first compound 2.53 µM): 0.377
relative viability ([18]; first compound 8 µM): 0.362
relative viability ([19]; first compound 0.08 µM): 0.0971
relative viability ([19]; first compound 0.253 µM): 0.159
relative viability ([19]; first compound 0.8 µM): 0.13
relative viability ([19]; first compound 2.53 µM): 0.154
relative viability ([19]; first compound 8 µM): 0.135
relative viability ([20]; first compound 0.08 µM): 0.613
relative viability ([20]; first compound 0.253 µM): 0.813
relative viability ([20]; first compound 2.53 µM): 0.512
relative viability ([20]; first compound 8 µM): 0.613
relative viability ([21]; first compound 0.08 µM): 0.253
relative viability ([21]; first compound 0.253 µM): 0.201
relative viability ([21]; first compound 0.8 µM): 0.241
relative viability ([21]; first compound 2.53 µM): 0.209
relative viability ([21]; first compound 8 µM): 0.266
relative viability ([22]; first compound 0.08 µM): 0.189
relative viability ([22]; first compound 0.253 µM): 0.232
relative viability ([22]; first compound 0.8 µM): 0.225
relative viability ([22]; first compound 2.53 µM): 0.199
relative viability ([22]; first compound 8 µM): 0.213
